Results reported in ChEMBL document CHEMBL1132420, “Vasopeptidase inhibitors: incorporation of geminal and spirocyclic substituted azepinones in mercaptoacyl dipeptides” (J Med Chem, 1999).

Columns and labels:
Rattus norvegicus = species: Rattus norvegicus; assay: Compound is evaluated for the dose required for 50% inhibition of AI pressor response in normotensive rats; format: functional
Neprilysin = molecular target: T1, Neprilysin (Rattus norvegicus, UniProt P07861); assay: In vitro inhibitory activity against purified rat kidney neutral endopeptidase (NEP) using a fluorometric assay with dansyl-Gly-Phe-Arg as the substrate
T1 sequence (P07861 whole entry): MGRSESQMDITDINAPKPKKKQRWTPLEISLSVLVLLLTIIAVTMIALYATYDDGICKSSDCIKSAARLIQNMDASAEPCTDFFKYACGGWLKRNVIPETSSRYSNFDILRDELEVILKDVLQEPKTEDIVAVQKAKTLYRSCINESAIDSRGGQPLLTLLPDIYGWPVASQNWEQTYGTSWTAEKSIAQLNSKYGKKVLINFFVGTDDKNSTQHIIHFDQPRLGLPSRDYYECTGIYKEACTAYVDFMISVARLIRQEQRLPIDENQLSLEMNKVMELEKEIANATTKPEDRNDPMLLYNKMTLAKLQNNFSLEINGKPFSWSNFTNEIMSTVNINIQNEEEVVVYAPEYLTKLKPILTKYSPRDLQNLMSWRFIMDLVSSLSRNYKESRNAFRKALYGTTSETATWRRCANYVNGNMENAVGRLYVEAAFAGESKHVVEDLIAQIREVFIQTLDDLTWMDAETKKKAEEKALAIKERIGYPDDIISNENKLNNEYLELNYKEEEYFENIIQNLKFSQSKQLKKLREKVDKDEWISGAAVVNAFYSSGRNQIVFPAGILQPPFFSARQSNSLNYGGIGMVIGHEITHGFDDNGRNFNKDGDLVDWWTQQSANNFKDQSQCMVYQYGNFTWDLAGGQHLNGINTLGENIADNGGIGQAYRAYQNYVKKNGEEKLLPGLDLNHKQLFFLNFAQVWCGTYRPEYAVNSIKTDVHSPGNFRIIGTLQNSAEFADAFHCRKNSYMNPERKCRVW

[1] = molecular target: T2, Angiotensin-converting enzyme (Oryctolagus cuniculus, UniProt P12822); assay: In vitro inhibitory activity against Angiotensin I converting enzyme (ACE) isolated from rabbit lung extract using hippuryl-L-histidyl-L-leucine (HHL) as the substrate
T2 sequence (P12822 whole entry): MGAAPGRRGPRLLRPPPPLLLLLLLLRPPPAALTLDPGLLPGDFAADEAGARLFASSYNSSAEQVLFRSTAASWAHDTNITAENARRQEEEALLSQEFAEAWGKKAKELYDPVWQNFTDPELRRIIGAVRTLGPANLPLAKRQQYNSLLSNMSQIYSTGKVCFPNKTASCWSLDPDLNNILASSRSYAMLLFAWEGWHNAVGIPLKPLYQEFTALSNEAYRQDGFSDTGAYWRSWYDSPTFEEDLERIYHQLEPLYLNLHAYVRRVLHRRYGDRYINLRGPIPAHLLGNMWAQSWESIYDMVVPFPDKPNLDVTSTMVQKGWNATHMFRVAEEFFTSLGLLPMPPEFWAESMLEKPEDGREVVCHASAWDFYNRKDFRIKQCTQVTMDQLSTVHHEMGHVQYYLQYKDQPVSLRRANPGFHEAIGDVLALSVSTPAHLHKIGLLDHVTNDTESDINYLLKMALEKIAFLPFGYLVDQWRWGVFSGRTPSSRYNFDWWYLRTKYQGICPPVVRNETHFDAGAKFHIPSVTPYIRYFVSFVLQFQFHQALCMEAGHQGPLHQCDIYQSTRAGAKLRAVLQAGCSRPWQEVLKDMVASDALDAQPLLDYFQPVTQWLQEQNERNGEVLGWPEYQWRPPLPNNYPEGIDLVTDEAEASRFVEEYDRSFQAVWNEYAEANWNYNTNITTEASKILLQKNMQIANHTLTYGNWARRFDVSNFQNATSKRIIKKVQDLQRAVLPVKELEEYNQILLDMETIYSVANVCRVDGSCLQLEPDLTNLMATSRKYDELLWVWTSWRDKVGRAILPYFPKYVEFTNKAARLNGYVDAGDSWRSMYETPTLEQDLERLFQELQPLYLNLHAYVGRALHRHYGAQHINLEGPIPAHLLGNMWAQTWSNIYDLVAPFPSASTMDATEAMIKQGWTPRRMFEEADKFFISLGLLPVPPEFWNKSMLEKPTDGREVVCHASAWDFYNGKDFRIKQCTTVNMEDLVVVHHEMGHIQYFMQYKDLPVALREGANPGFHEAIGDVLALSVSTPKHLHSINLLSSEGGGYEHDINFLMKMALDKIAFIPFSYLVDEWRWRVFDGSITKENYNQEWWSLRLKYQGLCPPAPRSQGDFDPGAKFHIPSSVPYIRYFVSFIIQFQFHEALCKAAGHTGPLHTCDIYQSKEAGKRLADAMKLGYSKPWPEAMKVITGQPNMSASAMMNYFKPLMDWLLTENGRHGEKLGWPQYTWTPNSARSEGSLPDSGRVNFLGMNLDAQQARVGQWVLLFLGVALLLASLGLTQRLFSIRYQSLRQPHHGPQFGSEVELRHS

| IC50 (Neprilysin) [µM] | IC50 [1] [µM] | SMILES | ED50 (Rattus norvegicus) [µmol/kg] |
| --- | --- | --- | --- |
| 0.063 | 0.012 | CC1(C)CCC[C@H](NC(=O)[C@@H](S)Cc2ccccc2)C(=O)N1CC(=O)O [GEMOPATRILAT] | 0.1 |
| 0.426 | 0.006 | O=C(O)CN1C(=O)[C@@H](NC(=O)[C@@H](S)Cc2ccccc2)CCCC12CCCC2 | – |
| 0.377 | 0.0096 | O=C(O)CN1C(=O)[C@@H](NC(=O)[C@@H](S)Cc2ccccc2)CCCC12CC2 | – |
| – | 0.0082 | C[C@H]1CCC[C@H](NC(=O)[C@@H](S)Cc2ccccc2)C(=O)N1CC(=O)O | – |
| 0.641 | 0.029 | O=C(O)CN1C(=O)[C@@H](NC(=O)[C@@H](S)Cc2ccccc2)CCCC12CCC2 | – |
